The supplement of paper PMC10307832

Legend:
Test in all cases: relative viability (nuclei count vs DMSO), 5 days (fraction); higher = more cells survive
[1] = compound: C/C(=N\NC(=S)N1CCC1)/C2=CC=CC=N2 + CCNC(=O)c1noc(-c2cc(C(C)C)c(O)cc2O)c1-c1ccc(CN2CCOCC2)cc1 [Luminespib] (partner 0.01 µM)
Summary of the method: (§1)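 Lung cancer cell lines were seeded in 1536-well plates and dosed by pin tool the next day, with either a single drug or a fixed anchor-drug dose combined with five library-drug doses (not always all listed) spaced in √10 steps. Five days later, one step fixed the cells and stained their nuclei (final 0.05% Triton X-100, 1% formaldehyde, 1 ug/ml Hoechst), and nuclei were counted on 4× images. Relative viability is the nuclei count in treated wells divided by the count in vehicle wells, and each value is the median of duplicate plates.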

[2] = compound: C/C(=N\NC(=S)N1CCC1)/C2=CC=CC=N2 + COc1cccc2cc(-c3nc([C@H]4CC[C@H](C(=O)O)CC4)n4ncnc(N)c34)[nH]c12 [OSI-027] (partner 0.5 µM)
Summary of the method: as §1

[3] = compound: C/C(=N\NC(=S)N1CCC1)/C2=CC=CC=N2 + CS(=O)(=O)CCNCc1ccc(-c2ccc3ncnc(Nc4ccc(OCc5cccc(F)c5)c(Cl)c4)c3c2)o1 [Lapatinib] (partner 2 µM)
Summary of the method: as §1

[4] = compound: C/C(=N\NC(=S)N1CCC1)/C2=CC=CC=N2 + C[C@]1(O)C[C@@H](c2nc(-c3ccc4ccc(-c5ccccc5)nc4c3)c3c(N)nccn32)C1 [Linsitinib] (partner 1 µM)
Summary of the method: as §1

Cell Line | relative viability ([1]; first compound 0.05 µM) | relative viability ([1]; first compound 0.1581 µM) | relative viability ([1]; first compound 0.5 µM) | relative viability ([1]; first compound 1.581 µM) | relative viability ([1]; first compound 5 µM) | relative viability ([2]; first compound 0.05 µM) | relative viability ([2]; first compound 0.1581 µM) | relative viability ([2]; first compound 0.5 µM) | relative viability ([2]; first compound 1.581 µM) | relative viability ([2]; first compound 5 µM) | relative viability ([3]; first compound 0.05 µM) | relative viability ([3]; first compound 0.1581 µM) | relative viability ([3]; first compound 0.5 µM) | relative viability ([3]; first compound 1.581 µM) | relative viability ([3]; first compound 5 µM) | relative viability ([4]; first compound 0.05 µM) | relative viability ([4]; first compound 0.1581 µM) | relative viability ([4]; first compound 0.5 µM) | relative viability ([4]; first compound 1.581 µM) | relative viability ([4]; first compound 5 µM)
NCI-H2087 | 0.116 | 0.0944 | 0.159 | 0.142 | 0.137 | 0.132 | 0.14 | 0.143 | 0.122 | 0.0904 | 0.196 | 0.268 | 0.224 | 0.195 | 0.143 | 0.305 | 0.37 | 0.301 | 0.244 | 0.178
NCI-H2228 | 0.168 | 0.119 | 0.129 | – | 0.158 | 0.116 | 0.152 | 0.207 | – | 0.0944 | 0.144 | 0.162 | 0.136 | 0.0958 | 0.139 | 0.179 | 0.273 | 0.233 | 0.144 | 0.213
NCI-H727 | 0.249 | 0.337 | 0.294 | 0.346 | 0.34 | 0.229 | 0.258 | 0.289 | 0.244 | 0.364 | 0.194 | 0.222 | 0.25 | 0.232 | 0.267 | 0.203 | 0.115 | 0.213 | 0.222 | 0.238
NCI-H650 | 0.177 | 0.2 | 0.198 | 0.173 | 0.2 | 0.162 | 0.228 | 0.194 | 0.211 | 0.198 | 0.174 | 0.294 | 0.23 | 0.168 | 0.203 | 0.214 | 0.262 | 0.251 | 0.153 | 0.18
NCI-H520 | 0.194 | 0.21 | 0.199 | 0.21 | 0.235 | 0.153 | 0.192 | 0.158 | 0.169 | 0.242 | 0.131 | 0.148 | 0.12 | 0.12 | 0.144 | 0.164 | 0.145 | 0.123 | 0.116 | 0.169
EBC-1 | – | – | – | – | – | – | – | – | – | – | 0.225 | 0.195 | 0.226 | 0.191 | 0.161 | 0.13 | 0.19 | 0.137 | 0.0985 | 0.11
NCI-H661 | 0.246 | 0.221 | 0.212 | 0.202 | 0.219 | 0.243 | 0.208 | 0.169 | 0.188 | 0.19 | 0.187 | 0.184 | 0.2 | 0.201 | 0.198 | 0.186 | 0.218 | 0.191 | 0.196 | 0.212
NCI-H1299 | – | – | – | – | – | – | – | – | – | – | 0.192 | 0.221 | 0.197 | 0.185 | 0.143 | 0.0879 | 0.112 | 0.133 | 0.152 | 0.145
LK-2 | 0.16 | 0.147 | 0.158 | 0.188 | 0.131 | 0.141 | 0.174 | 0.177 | 0.167 | 0.142 | 0.171 | 0.25 | 0.201 | 0.144 | 0.199 | 0.14 | 0.154 | 0.18 | 0.114 | 0.125
NCI-H1993 | 0.455 | 0.496 | 0.517 | 0.428 | 0.509 | 0.519 | 0.542 | 0.516 | 0.541 | 0.545 | 0.59 | 0.634 | 0.619 | 0.58 | 0.543 | 0.643 | 0.703 | 0.58 | 0.614 | 0.53
NCI-H838 | 0.111 | 0.15 | 0.132 | 0.125 | 0.14 | 0.167 | 0.179 | 0.19 | 0.129 | 0.142 | 0.185 | 0.186 | 0.212 | 0.149 | 0.164 | 0.241 | 0.224 | 0.198 | 0.183 | 0.143
NCI-H2170 | 0.689 | 0.25 | 0.136 | 0.18 | 0.151 | 0.34 | 0.294 | 0.237 | 0.217 | 0.158 | 0.24 | 0.2 | 0.203 | 0.192 | 0.188 | – | – | – | – | –
NCI-H1648 | – | – | – | – | – | 0.309 | 0.279 | 0.351 | 0.314 | 0.307 | – | – | – | – | – | – | – | – | – | –
LCLC-103H | 0.174 | 0.204 | 0.233 | 0.182 | 0.158 | 0.178 | 0.22 | 0.217 | 0.2 | 0.19 | – | – | – | – | – | 0.389 | 0.99 | 0.262 | 0.309 | 0.238
NCI-H441 | 0.205 | 0.158 | 0.251 | 0.181 | 0.164 | 0.181 | 0.173 | 0.16 | 0.143 | 0.168 | – | – | – | – | – | 0.145 | 0.15 | 0.117 | 0.0833 | 0.108
NCI-H1650 | 0.182 | 0.185 | 0.2 | 0.168 | 0.174 | 0.158 | 0.216 | 0.17 | 0.152 | 0.184 | 0.257 | 0.204 | 0.192 | 0.267 | 0.199 | – | – | – | – | –
SW 900 | 0.162 | 0.144 | 0.106 | 0.124 | 0.184 | 0.0629 | 0.1 | 0.0605 | 0.0573 | 0.119 | – | – | – | – | – | – | – | – | – | –
IA-LM | – | – | – | – | – | – | – | – | – | – | 0.0819 | 0.067 | 0.0525 | 0.0618 | 0.0601 | 0.0757 | 0.0841 | 0.0585 | 0.0612 | 0.0387
HCC-366 | – | – | – | – | – | 0.0452 | 0.0275 | 0.0339 | 0.0481 | 0.0279 | 0.0217 | 0.0257 | 0.0157 | 0.0217 | 0.0218 | 0.0558 | 0.0147 | 0.0179 | 0.0206 | 0.0189
NCI-H522 | 0.353 | 0.375 | 0.369 | 0.412 | 0.49 | – | 0.341 | 0.495 | – | 0.561 | – | – | – | – | – | – | – | – | – | –
HCC-78 | – | – | – | – | – | 0.299 | 0.354 | 0.332 | 0.237 | 0.23 | 0.0064 | 0.211 | 0.226 | 0.158 | 0.178 | 0.299 | 0.251 | 0.189 | 0.161 | 0.175
